From patent US5079254A, “Derivatives of 6-aminooctahydroindolizinetriol” (Merrell Dow Pharmaceuticals Inc., priority 1990, dated 1992)

Assays:
[1] = target: hexosaminidase from human placenta; experiment: Inhibition of hexosaminidase activity, 4-nitrophenyl-N-acetyl-β-glucosaminide substrate, 96-well microplate (human placenta enzyme); format: biochemical; conditions: pH 4.5, 10 min preincubation at room temperature, substrate 30 min at 37° C., read at 405 nm
Protocol: (§1) In a preliminary screen, test compounds are studied over a range of concentrations from 0.1 to 100 μg/ml. together with a control sample. Specifically, the test compound is added to individual wells and made up to a total volume of 100 μl. To each well is added 25 μl of 1M sodium citrate buffer pH 4.5 and 25 μl of enzyme (1 mμ) in 10 mM sodium citrate at pH 4.5. The material is mixed and incubated at room temperature for 10 minutes. Then 50 μl of 10 mM substrate (4-nitrophenyl-N-acetyl-8-glucosaminide, Sigma # N-91376) is added and the mixture is incubated at 37° C. for 30 minutes. The reaction is then killed by adding 100 μl of 2% sodium carbonate and the yellow color due to release of 4-nitrophenol is read at 405 nm in an Elisa reader. The results obtained in this preliminary screen are then examined and, if inhibition has taken place, the procedure is repeated using several concentrations over a narrower range to provide for a more precise determination of the IC50.

[2] = target: hexosaminidase from porcine placenta; experiment: Inhibition of hexosaminidase activity, 4-nitrophenyl-N-acetyl-β-glucosaminide substrate, 96-well microplate (porcine placenta enzyme); format: biochemical; conditions: pH 4.5, 10 min preincubation at room temperature, substrate 30 min at 37° C., read at 405 nm
Protocol: as §1

Lewis lung tumor cell = conditions: female mice implanted with Lewis lung tumor cell; Bernacki, page 93; cited from earlier work

Row | Compound | IC50 value for the inhibition of hexosaminidase from human placenta [1] [µg/mL] | IC50 value for the inhibition of hexosaminidase from porcine placenta [2] [µg/mL] | increase of life span (Lewis lung tumor cell) [%]
1 | CC(=O)N[C@H]1CN2CC[C@H](O)[C@@H]2[C@@H](O)[C@@H]1O [[1S-(1α,6β,7α,8β,8aβ)]-6-acetamidooctahydro-1,7,8-indolizinetriol] | 0.1 | 0.1 | –
2 | CC(=O)NC1=CO[C@H](CO)[C@@H](O)[C@@H]1O [2-acetamidoglucal] | – | – | 63
